The numbers were not newly measured in US6681132B1, “Sodium magnetic reasonance imaging used in diagnosing tumors and assessing response to treatment” (The Trustees of Columbia University in the City of New York, priority 1999, dated 2004), which cites them from elsewhere.

The test system of the data set is L cells. The note with it: K+ loss exceeds Na+ gain; cited from earlier work.

Regarding `O=C(O)c1nn(Cc2ccc(Cl)cc2Cl)c2ccccc12` [lonidamine], the “effect on total cellular monovalent cations” value is on record as “net reduction”.
